According to ChEMBL document CHEMBL1148814, “Novel class of quinone-bearing polyamines as multi-target-directed ligands to combat Alzheimer's disease” (J Med Chem, 2007):
Activity calls are given as the source filed them. The rule behind the calls is not given here.

Experiments:
Cholinesterase = Cholinesterase (Homo sapiens, UniProt P06276)
Description: Inhibition of human recombinant butyrylcholinesterase

Acetylcholinesterase = Acetylcholinesterase (Homo sapiens, UniProt P22303)
Description: Inhibition of human recombinant acetylcholinesterase

SH-SY5Y [1] = assay: Antioxidant activity in human SHSY5Y cells overexpressing NQO1 assessed as increase in tert-butyl hydroperoxide evoked-intracellular ROS formation at 3 uM after 24 hrs relative to control; format: functional
SH-SY5Y [2] = assay: Antioxidant activity in human SHSY5Y cells overexpressing NQO1 assessed as increase in tert-butyl hydroperoxide evoked-intracellular ROS formation at 1 uM after 24 hrs relative to control; format: functional
SH-SY5Y [3] = assay: Antioxidant activity in human SHSY5Y cells overexpressing NQO1 assessed as increase in tert-butyl hydroperoxide evoked-intracellular ROS formation at 0.3 uM after 24 hrs relative to control; format: functional
SH-SY5Y [4] = assay: Antioxidant activity in human SHSY5Y cells overexpressing NQO1 assessed as increase in tert-butyl hydroperoxide evoked-intracellular ROS formation at 0.1 uM after 24 hrs relative to control; format: functional
[5] = molecular target: NAD(P)H dehydrogenase [quinone] 1 (Homo sapiens) (UniProt P15559); assay: Activity of NQO1 enzyme
Sequence of NAD(P)H dehydrogenase [quinone] 1 (Homo sapiens) (P15559 whole entry): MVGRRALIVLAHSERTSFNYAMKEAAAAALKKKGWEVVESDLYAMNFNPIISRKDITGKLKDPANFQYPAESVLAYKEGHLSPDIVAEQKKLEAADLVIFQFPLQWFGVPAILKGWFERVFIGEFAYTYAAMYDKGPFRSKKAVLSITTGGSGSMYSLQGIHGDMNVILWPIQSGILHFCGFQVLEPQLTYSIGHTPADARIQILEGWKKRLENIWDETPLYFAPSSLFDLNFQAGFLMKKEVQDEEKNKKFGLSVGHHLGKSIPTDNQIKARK

Sequence of Cholinesterase (P06276 whole entry): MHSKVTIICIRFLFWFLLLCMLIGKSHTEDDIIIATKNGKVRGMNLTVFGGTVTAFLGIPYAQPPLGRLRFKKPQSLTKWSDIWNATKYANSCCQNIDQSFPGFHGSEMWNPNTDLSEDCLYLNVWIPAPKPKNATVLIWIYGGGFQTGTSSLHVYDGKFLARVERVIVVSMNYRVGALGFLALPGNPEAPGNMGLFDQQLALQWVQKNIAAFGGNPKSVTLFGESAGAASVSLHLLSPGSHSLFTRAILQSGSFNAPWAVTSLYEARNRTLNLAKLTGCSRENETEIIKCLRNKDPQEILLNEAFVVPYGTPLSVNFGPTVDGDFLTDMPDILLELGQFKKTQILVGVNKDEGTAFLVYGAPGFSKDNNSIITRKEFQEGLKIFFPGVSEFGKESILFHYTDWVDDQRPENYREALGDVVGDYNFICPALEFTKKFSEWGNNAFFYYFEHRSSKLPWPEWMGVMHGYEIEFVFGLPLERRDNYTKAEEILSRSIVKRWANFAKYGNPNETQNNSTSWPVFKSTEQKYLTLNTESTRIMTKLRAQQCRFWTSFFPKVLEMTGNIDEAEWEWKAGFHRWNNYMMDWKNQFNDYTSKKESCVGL
Sequence of Acetylcholinesterase (P22303 whole entry): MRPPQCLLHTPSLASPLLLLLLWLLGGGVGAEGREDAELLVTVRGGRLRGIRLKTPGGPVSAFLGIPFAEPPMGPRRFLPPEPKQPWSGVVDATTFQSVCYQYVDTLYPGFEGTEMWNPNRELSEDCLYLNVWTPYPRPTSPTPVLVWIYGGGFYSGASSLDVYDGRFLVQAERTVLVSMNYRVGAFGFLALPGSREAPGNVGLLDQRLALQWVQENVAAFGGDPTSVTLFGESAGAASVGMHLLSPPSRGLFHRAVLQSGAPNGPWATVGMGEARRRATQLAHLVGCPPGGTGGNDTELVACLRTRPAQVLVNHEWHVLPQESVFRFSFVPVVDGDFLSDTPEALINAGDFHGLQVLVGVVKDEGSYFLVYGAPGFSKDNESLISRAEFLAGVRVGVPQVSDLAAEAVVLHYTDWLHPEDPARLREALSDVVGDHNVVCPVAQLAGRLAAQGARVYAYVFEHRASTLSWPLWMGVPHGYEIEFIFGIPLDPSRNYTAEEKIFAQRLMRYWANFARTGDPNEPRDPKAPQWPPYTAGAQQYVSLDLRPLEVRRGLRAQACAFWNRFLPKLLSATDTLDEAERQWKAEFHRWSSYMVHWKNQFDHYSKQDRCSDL

SMILES	IC50 (Cholinesterase) [nM]	IC50 (Acetylcholinesterase) [nM]	further results
CCN(CCCNC1=CC(=O)C(NCCCN(CC)Cc2ccccc2OC)=CC1=O)Cc1ccccc1OC	9840	–	–
CCN(CCCCCCNC1=CC(=O)C(NCCCCCCN(CC)Cc2ccccc2C)=CC1=O)Cc1ccccc1C	2080	71.9	–
CCN(CCCCCCNC1=CC(=O)C(NCCCCCCN(CC)Cc2cccs2)=CC1=O)Cc1cccs1	2790	60.4	–
CCN(CCCCCCNC1=CC(=O)C(NCCCCCCN(CC)Cc2ccccc2[N+](=O)[O-])=CC1=O)Cc1ccccc1[N+](=O)[O-]	67100	–	–
CCN(Cc1ccccc1OC)C(=O)CCCCCNC1=CC(=O)C(NCCCCCC(=O)N(CC)Cc2ccccc2OC)=CC1=O	18500	11600	–
CCN(CCCCCNC1=CC(=O)C(NCCCCCN(CC)Cc2ccccc2OC)=CC1=O)Cc1ccccc1OC	3460	2.36	–
CCN(CCCCCCNC1=CC(=O)C(NCCCCCCN(CC)Cc2ccc(OC)cc2)=CC1=O)Cc1ccc(OC)cc1	2390	–	–
CCN(CCCCCCNC1=CC(=O)C(NCCCCCCN(CC)Cc2cccnc2)=CC1=O)Cc1cccnc1	11900	133	–
CCN(CCCCCCNC1=CC(=O)C(NCCCCCCN(CC)Cc2ccco2)=CC1=O)Cc1ccco1	3410	–	–
CCN(CCCCCCNC1=CC(=O)C(NCCCCCCN(CC)Cc2ccccc2OC)=CC1=O)Cc1ccccc1OC [MEMOQUIN]	–	–	Activity (SH-SY5Y [1]): 30.5%; Activity (SH-SY5Y [2]): 40.25%; Activity (SH-SY5Y [3]): 49.94%; Activity (SH-SY5Y [4]): 53%
CCN(CCCCCCNc1ccc(NCCCCCCN(CC)Cc2ccccc2OC)cc1)Cc1ccccc1OC	505	42.5	Activity (SH-SY5Y [1]): 49.54%; Activity (SH-SY5Y [2]): 51.35%; Activity (SH-SY5Y [3]): 50.45%; Activity [5]: inactive; Activity (SH-SY5Y [4]): 54.2%
CCN(CCCCNC1=CC(=O)C(NCCCCN(CC)Cc2ccccc2OC)=CC1=O)Cc1ccccc1OC	12800	13.6	–
CCN(CCCCCCNC1=C(Cl)C(=O)C(NCCCCCCN(CC)Cc2ccccc2OC)=C(Cl)C1=O)Cc1ccccc1OC	800	3.05	–
CCN(CCCCCCNC1=CC(=O)C(NCCCCCCN(CC)Cc2ccccn2)=CC1=O)Cc1ccccn1	2470	125	–
CCN(CCCCCCNC1=C(c2ccccc2)C(=O)C(NCCCCCCN(CC)Cc2ccccc2OC)=C(c2ccccc2)C1=O)Cc1ccccc1OC	2250	123	–
CCN(CCCCCCNC1=CC(=O)C(NCCCCCCN(CC)Cc2cccc(OC)c2)=CC1=O)Cc1cccc(OC)c1	1690	–	–
CCN(CCCCCCNC1=CC(=O)C(NCCCCCCN(CC)Cc2ccncc2)=CC1=O)Cc1ccncc1	70100	192	–
CCN(CCCCCCNC1=CC(=O)C(NCCCCCCN(CC)CCc2ccccc2OC)=CC1=O)CCc1ccccc1OC	518	17.3	–
CCN(CCCCCCNC1=C(Br)C(=O)C(NCCCCCCN(CC)Cc2ccccc2OC)=C(Br)C1=O)Cc1ccccc1OC	696	–	Activity (SH-SY5Y [1]): 42.12%; Activity (SH-SY5Y [2]): 50.43%; Activity (SH-SY5Y [3]): 52.35%; Activity (SH-SY5Y [4]): 50.51%
COc1ccccc1CN(CCCCCCNC1=CC(=O)C(NCCCCCCN(Cc2ccccc2OC)C(C)C)=CC1=O)C(C)C	660	12.9	–
